Consider five molecules from patent US20260001888A1, “PYRAZOLOPYRIMIDINE PDE9 INHIBITORS” (Merck Sharp & Dohme LLC, priority 2018, published 2026).

For this assay, the target named is Human PDE9 (PDE9A2) (Homo sapiens (Human), UniProt O76083). Put plainly: PDE9 IMAP fluorescence polarization (FP) inhibition assay. In kind it is biochemical. As to conditions: apparent inhibition constant; human PDE9A2, FAM-cGMP substrate 50 nM, room temperature. In short, it runs like this:
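N-terminal GST-tagged full-length PDE9A2 membrane prep (0.5 ng/ml final) preincubated 30 min with compound at room temperature, then 50 nM FAM-cGMP added for 60 min; IMAP binding reagent stops reaction, FP read after 1 h. Controls: known PDE9 inhibitor (100%), 1% DMSO (0%). KI from four-parameter fit.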
(In general: Fluorescence polarisation rises when a labelled molecule tumbles more slowly, as on binding a larger partner.)

Human PDE9 (PDE9A2), sequence (O76083 other isoform, or with tags, fused parts or gaps): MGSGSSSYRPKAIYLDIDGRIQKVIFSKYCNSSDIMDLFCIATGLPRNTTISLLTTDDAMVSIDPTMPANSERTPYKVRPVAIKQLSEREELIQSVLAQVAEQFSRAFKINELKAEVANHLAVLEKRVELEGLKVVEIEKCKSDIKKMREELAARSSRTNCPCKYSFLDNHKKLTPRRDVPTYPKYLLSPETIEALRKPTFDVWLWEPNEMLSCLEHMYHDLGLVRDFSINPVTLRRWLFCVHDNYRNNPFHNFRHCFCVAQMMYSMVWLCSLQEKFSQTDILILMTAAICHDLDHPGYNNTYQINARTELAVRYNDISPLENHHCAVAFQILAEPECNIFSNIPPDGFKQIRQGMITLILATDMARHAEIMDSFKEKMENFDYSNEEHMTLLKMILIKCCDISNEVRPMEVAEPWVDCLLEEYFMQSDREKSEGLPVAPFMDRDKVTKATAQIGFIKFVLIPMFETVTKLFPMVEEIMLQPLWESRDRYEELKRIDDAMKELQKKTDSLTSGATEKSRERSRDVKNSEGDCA

For the molecule `CC(Cc1nc2c(c(C#N)nn2C(C)c2ccc(C(F)(F)F)nc2)c(=O)[nH]1)c1ncccn1` (single isomer, unassigned) [Example 86, 4-oxo-6-(2-(pyrimidin-2-yl)propyl)-1-(1-(6-(trifluoromethyl)pyridin-3-yl)ethyl)-4,5-dihydro-1H-pyrazolo[3,4-d]pyrimidine-3-carbonitrile], the Ki amounted to 33.4 nM.

For the molecule `CCC(Cc1nc2c(c(C#N)nn2C(C)c2ccc(C(F)(F)F)nc2)c(=O)[nH]1)c1ncccn1` (single isomer, unassigned) [Example 87, 4-oxo-6-(2-(pyrimidin-2-yl)butyl)-1-(1-(6-(trifluoromethyl)pyridin-3-yl)ethyl)-4,5-dihydro-1H-pyrazolo[3,4-d]pyrimidine-3-carbonitrile], the Ki is 93.4 nM.

For `CCC(Cc1nc2c(c(C#N)nn2C(C)c2ccc(C(F)(F)F)nc2)c(=O)[nH]1)c1ncccn1` (single isomer, unassigned) [Example 88, 4-oxo-6-(2-(pyrimidin-2-yl)butyl)-1-(1-(6-(trifluoromethyl)pyridin-3-yl)ethyl)-4,5-dihydro-1H-pyrazolo[3,4-d]pyrimidine-3-carbonitrile], the Ki came to 108 nM.

Regarding `CCC(Cc1nc2c(c(C#N)nn2C(C)c2ccc(C(F)(F)F)nc2)c(=O)[nH]1)c1ncccn1` (single isomer, unassigned) [Example 89, 4-oxo-6-(2-(pyrimidin-2-yl)butyl)-1-(1-(6-(trifluoromethyl)pyridin-3-yl)ethyl)-4,5-dihydro-1H-pyrazolo[3,4-d]pyrimidine-3-carbonitrile], the Ki was found to be 0.24 nM.

With `CCC(Cc1nc2c(c(C#N)nn2C(C)c2ccc(C(F)(F)F)nc2)c(=O)[nH]1)c1ncccn1` (single isomer, unassigned) [Example 90, 4-oxo-6-(2-(pyrimidin-2-yl)butyl)-1-(1-(6-(trifluoromethyl)pyridin-3-yl)ethyl)-4,5-dihydro-1H-pyrazolo[3,4-d]pyrimidine-3-carbonitrile], the Ki is 28 nM.
